Reference: ChEMBL document CHEMBL3044568, “Synthesis, analgesic, anti-inflammatory, and in vitro antimicrobial activities of some novel quinazolin-4(3H)-one derivatives” (Med Chem Res, 2013)
Converted amounts (≈) assume the structure as drawn.

Key:
Rattus norvegicus [1] = test: Anti-inflammatory activity in Rattus norvegicus Wistar (rat) assessed as protection against carrageenan-induced paw edema at 10 mg/kg, po measured at 30 min by plethysmographic analysis (reference value: 4 +/- 0.28%); format: functional
Mus musculus [2] = test: Analgesic activity in Mus musculus […] albino (mouse) at 10 mg/kg, po measured at 3 hr by tail flick test (reference value: 3 +/- 0.41%)
Klebsiella pneumoniae = test: Antibacterial activity against Klebsiella pneumoniae ATCC 11298 assessed as growth inhibition after 24 hr by agar streak dilution method; format: functional; conditions: ATCC 11298, 24 h
Mus musculus [3] = test: Analgesic activity in Mus musculus […] albino (mouse) at 10 mg/kg, po measured at 2 hr by tail flick test (reference value: 6 +/- 0.84%)
Aspergillus niger = test: Antifungal activity against Aspergillus niger ATCC 9029 assessed as growth inhibition after 48 hr by agar streak dilution method; format: functional; conditions: ATCC 9029, 48 h
Micrococcus luteus = test: Antibacterial activity against Micrococcus luteus ATCC 4698 assessed as growth inhibition after 24 hr by agar streak dilution method; format: functional; conditions: ATCC 4698, 24 h
Mus musculus [4] = test: Analgesic activity in Mus musculus […] albino (mouse) at 20 mg/kg, po measured at 1 hr by tail flick test (reference value: 5 +/- 0.49%)
Rattus norvegicus [5] = test: Anti-inflammatory activity in Rattus norvegicus Wistar (rat) assessed as protection against carrageenan-induced paw edema at 10 mg/kg, po measured at 2 hr by plethysmographic analysis (reference value: 5 +/- 0.41%); format: functional
Bacillus cereus = test: Antibacterial activity against Bacillus cereus ATCC 11778 assessed as growth inhibition after 24 hr by agar streak dilution method; format: functional; conditions: ATCC 11778, 24 h
Mus musculus [6] = test: Analgesic activity in Mus musculus […] albino (mouse) at 10 mg/kg, po measured at 30 min by tail flick test (reference value: 4 +/- 0.72%)
Rattus norvegicus [7] = test: Anti-inflammatory activity in Rattus norvegicus Wistar (rat) assessed as protection against carrageenan-induced paw edema at 20 mg/kg, po measured at 2 hr by plethysmographic analysis (reference value: 5 +/- 0.41%); format: functional
Aspergillus fumigatus = test: Antifungal activity against Aspergillus fumigatus ATCC 46645 assessed as growth inhibition after 48 hr by agar streak dilution method; format: functional; conditions: ATCC 46645, 48 h
Rattus norvegicus [8] = test: Ulcerogenecity in Rattus norvegicus Wistar albino (rat) stomach assessed as ulcer index administered 20 mg/kg, ip qd for 3 days measured on day 4 relative to aspirin; format: ADME, organism-based; design: dose 20 mg/kg, route intraperitoneal; conditions: in vivo, 72 h
Rattus norvegicus [9] = test: Ulcerogenecity in Rattus norvegicus Wistar albino (rat) stomach assessed as ulcer index administered 20 mg/kg, ip qd for 3 days measured on day 4 relative to diclofenac; format: ADME, organism-based; design: dose 20 mg/kg, route intraperitoneal; conditions: in vivo, 72 h
[10] = test system: Staphylococcus epidermidis; test: Antibacterial activity against Staphylococcus epidermidis ATCC 155 assessed as growth inhibition after 24 hr by agar streak dilution method; format: functional; conditions: ATCC 155, 24 h
Escherichia coli = test: Antibacterial activity against Escherichia coli ATCC 25922 assessed as growth inhibition after 24 hr by agar streak dilution method; format: functional; conditions: ATCC 25922, 24 h
Pseudomonas aeruginosa = test: Antibacterial activity against Pseudomonas aeruginosa […] assessed as growth inhibition after 24 hr by agar streak dilution method; format: functional
Rattus norvegicus [11] = test: Anti-inflammatory activity in Rattus norvegicus Wistar (rat) assessed as protection against carrageenan-induced paw edema at 10 mg/kg, po measured at 3 hr by plethysmographic analysis (reference value: 4 +/- 0.75%); format: functional
Staphylococcus aureus = test: Antibacterial activity against Staphylococcus aureus ATCC 9144 assessed as growth inhibition after 24 hr by agar streak dilution method; format: functional; conditions: ATCC 9144, 24 h
Mus musculus [12] = test: Analgesic activity in Mus musculus […] albino (mouse) at 20 mg/kg, po measured at 2 hr by tail flick test (reference value: 6 +/- 0.84%)
Mus musculus [13] = test: Analgesic activity in Mus musculus […] albino (mouse) at 20 mg/kg, po measured at 3 hr by tail flick test (reference value: 3 +/- 0.41%)
Rattus norvegicus [14] = test: Anti-inflammatory activity in Rattus norvegicus Wistar (rat) assessed as protection against carrageenan-induced paw edema at 20 mg/kg, po measured at 30 min by plethysmographic analysis (reference value: 4 +/- 0.28%); format: functional
Rattus norvegicus [15] = test: Anti-inflammatory activity in Rattus norvegicus Wistar (rat) assessed as protection against carrageenan-induced paw edema at 10 mg/kg, po measured at 1 hr by plethysmographic analysis (reference value: 6 +/- 0.63%); format: functional
Rattus norvegicus [16] = test: Anti-inflammatory activity in Rattus norvegicus Wistar (rat) assessed as protection against carrageenan-induced paw edema at 20 mg/kg, po measured at 1 hr by plethysmographic analysis (reference value: 6 +/- 0.63%); format: functional
Mus musculus [17] = test: Analgesic activity in Mus musculus […] albino (mouse) at 20 mg/kg, po measured at 30 min by tail flick test (reference value: 4 +/- 0.72%)
Rattus norvegicus [18] = test: Ulcerogenecity in Rattus norvegicus Wistar albino (rat) stomach assessed as ulcer index administered 20 mg/kg, ip qd for 3 days measured on day 4 (reference value: 0.13 +/- 0.05 no unit); format: ADME, organism-based; design: dose 20 mg/kg, route intraperitoneal; conditions: in vivo, 72 h
Mus musculus [19] = test: Analgesic activity in Mus musculus […] albino (mouse) at 10 mg/kg, po measured at 1 hr by tail flick test (reference value: 5 +/- 0.49%)
Rattus norvegicus [20] = test: Anti-inflammatory activity in Rattus norvegicus Wistar (rat) assessed as protection against carrageenan-induced paw edema at 20 mg/kg, po measured at 3 hr by plethysmographic analysis (reference value: 4 +/- 0.75%); format: functional

| Structure (SMILES) | Activity (Rattus norvegicus [1]) [%] | Activity (Mus musculus [2]) [%] | MIC (Klebsiella pneumoniae) [µg/mL] | Activity (Mus musculus [3]) [%] | MIC (Aspergillus niger) [µg/mL] | MIC (Micrococcus luteus) [µg/mL] | Activity (Mus musculus [4]) [%] | Activity (Rattus norvegicus [5]) [%] | MIC (Bacillus cereus) [µg/mL] | Activity (Mus musculus [6]) [%] | Activity (Rattus norvegicus [7]) [%] | MIC (Aspergillus fumigatus) [µg/mL] | MIC [10] [µg/mL] | MIC (Escherichia coli) [µg/mL] | MIC (Pseudomonas aeruginosa) [µg/mL] | Activity (Rattus norvegicus [11]) [%] | MIC (Staphylococcus aureus) [µg/mL] | Activity (Mus musculus [12]) [%] | Activity (Mus musculus [13]) [%] | Activity (Rattus norvegicus [14]) [%] | other results |
| --- | --- | --- | --- | --- | --- | --- | --- | --- | --- | --- | --- | --- | --- | --- | --- | --- | --- | --- | --- | --- | --- |
| Cc1nc2ccccc2c(=O)n1-c1ccc(NC(=O)CN/N=C/c2ccc([N+](=O)[O-])cc2)cc1 | 20 | 25 | 7.81 (≈ 17.1 µM) | 36 | 15.6 (≈ 34.2 µM) | 15.6 (≈ 34.2 µM) | 42 | 31 | 7.81 (≈ 17.1 µM) | 26 | 40 | 15.6 (≈ 34.2 µM) | 7.81 (≈ 17.1 µM) | 31.2 (≈ 68.5 µM) | 15.6 (≈ 34.2 µM) | 20 | 31.2 (≈ 68.5 µM) | 49 | 27 | 29 | UI (Rattus norvegicus [8]): 31%; UI (Rattus norvegicus [9]): 34%; Activity (Rattus norvegicus [15]): 26%; Activity (Rattus norvegicus [16]): 36%; Activity (Mus musculus [17]): 38%; UI (Rattus norvegicus [18]): 0.8 no unit; Activity (Mus musculus [19]): 31%; Activity (Rattus norvegicus [20]): 31% |
| Cc1nc2ccccc2c(=O)n1-c1ccc(NC(=O)CN/N=C/c2ccc(C(F)(F)F)cc2)cc1 | 35 | 39 | 7.81 (≈ 16.3 µM) | 53 | 7.81 (≈ 16.3 µM) | 7.81 (≈ 16.3 µM) | 63 | 46 | 3.9 (≈ 8.13 µM) | 40 | 65 | 15.6 (≈ 32.6 µM) | 15.6 (≈ 32.6 µM) | 31.2 (≈ 65.2 µM) | 7.81 (≈ 16.3 µM) | 39 | 15.6 (≈ 32.6 µM) | 70 | 45 | 46 | UI (Rattus norvegicus [8]): 32%; UI (Rattus norvegicus [9]): 32%; Activity (Rattus norvegicus [15]): 40%; Activity (Rattus norvegicus [16]): 57%; Activity (Mus musculus [17]): 53%; UI (Rattus norvegicus [18]): 0.55 no unit; Activity (Mus musculus [19]): 48%; Activity (Rattus norvegicus [20]): 47% |
| Cc1ccc(/C=N\NCC(=O)Nc2ccc(-n3c(C)nc4ccccc4c3=O)cc2)o1 | 19 | 19 | 62.5 (≈ 150 µM) | 27 | 125 (≈ 301 µM) | 125 (≈ 301 µM) | 33 | 30 | 62.5 (≈ 150 µM) | 17 | 39 | 62.5 (≈ 150 µM) | 62.5 (≈ 150 µM) | 62.5 (≈ 150 µM) | 31.2 (≈ 75.2 µM) | 23 | 62.5 (≈ 150 µM) | 38 | 21 | 31 | UI (Rattus norvegicus [8]): 31%; UI (Rattus norvegicus [9]): 34%; Activity (Rattus norvegicus [15]): 25%; Activity (Rattus norvegicus [16]): 35%; Activity (Mus musculus [17]): 29%; UI (Rattus norvegicus [18]): 0.77 no unit; Activity (Mus musculus [19]): 24%; Activity (Rattus norvegicus [20]): 30% |
| Cc1nc2ccccc2c(=O)n1-c1ccc(NC(=O)CN/N=C/c2ccc(F)cc2)cc1 | 26 | 31 | 3.9 (≈ 9.08 µM) | 42 | 31.2 (≈ 72.8 µM) | 15.6 (≈ 36.4 µM) | 54 | 36 | 7.81 (≈ 18.2 µM) | 32 | 52 | 15.6 (≈ 36.4 µM) | 7.81 (≈ 18.2 µM) | 31.2 (≈ 72.8 µM) | 7.81 (≈ 18.2 µM) | 29 | 31.2 (≈ 72.8 µM) | 58 | 35 | 37 | UI (Rattus norvegicus [8]): 31%; UI (Rattus norvegicus [9]): 34%; Activity (Rattus norvegicus [15]): 33%; Activity (Rattus norvegicus [16]): 49%; Activity (Mus musculus [17]): 44%; UI (Rattus norvegicus [18]): 0.64 no unit; Activity (Mus musculus [19]): 38%; Activity (Rattus norvegicus [20]): 36% |
| CC(=O)N1CCN(c2ccc(OCC3COC(Cn4ccnc4)(c4ccc(Cl)cc4Cl)O3)cc2)CC1 (configuration not stated) [KETOCONAZOLE] |  |  |  |  | 15.6 (≈ 29.4 µM) |  |  |  |  |  |  | 7.81 (≈ 14.7 µM) |  |  |  |  |  |  |  |  |  |
| O=C(O)c1cn(C2CC2)c2cc(N3CCNCC3)c(F)cc2c1=O [CIPROFLOXACIN] |  |  | 3.9 (≈ 11.8 µM) |  |  | 7.81 (≈ 23.6 µM) |  |  | 7.81 (≈ 23.6 µM) |  |  |  | 7.81 (≈ 23.6 µM) | 15.6 (≈ 47.1 µM) | 7.81 (≈ 23.6 µM) |  | 15.6 (≈ 47.1 µM) |  |  |  |  |
| O=C([O-])Cc1ccccc1Nc1c(Cl)cccc1Cl.[Na+] [DICLOFENAC SODIUM] | 31 | 32 |  | 49 |  |  | 55 | 42 |  | 34 | 60 |  |  |  |  | 29 |  | 64 | 41 | 40 | Activity (Rattus norvegicus [15]): 36%; Activity (Rattus norvegicus [16]): 51%; Activity (Mus musculus [17]): 47%; Activity (Mus musculus [19]): 44%; Activity (Rattus norvegicus [20]): 43% |
